Activation data for 14 compounds are collected here from patent US8785439B2, “2,5,7-substituted oxazolopyrimidine derivatives” (Sanofi, priority 2010, dated 2014).

This test deals with T1, human Edg-1 receptor (Homo sapiens, UniProt P21453).
T1 construct: FLAG (N); expressed in transfected cells; membrane preparation
In words: GTP-γ-S assay using human Edg-1 receptors (SPA, CHO Flp-In cell membrane preparation). The format is biochemical. The following applies: test compound at 10 μM; high control 10 μM S1P regarded as 100% activation; background-corrected; triplicate; read-out: % Activation (Edg-1 receptor activation in percent of the activation by 10 μM S1P). From the text: Determination of the Pharmacological Activity A) GTP-γ-S Assay Using Human Edg-1 Receptors
In order to determine the Edg-1 receptor activation by the compounds of the invention, a GTP-γ-S (guanosine 5′-[γ-thio]triphosphate) assay for G-protein coupled receptor binding based on the scintillation proximity assay principle was used, employing a cell membrane preparation from a CHO Flp-In cell line which constitutively overexpresses the human Edg-1 receptor.
The Flp-In™ expression system (Invitrogen, cat. no. K6010-01) allows the generation of stable mammalian cell lines into which the gene of interest has been integrated through homologous recombination at a specific genomic location called Flp Recombination Target (FRT) site by means of a Flp recombinase encoded by the pOG44 expression plasmid. The integration of the pcDNA5/FRT expression construct into the Flp-In host cell line genome results in the transcription of the gene of interest. The stably transfected cells become hygromycin-resistant.
One day prior to transfection, 200 000 Flp-In-CHO cells were seeded in Ham F-12 medium (Invitrogen, cat. no. 31765) supplemented with 10% fetal calf serum (FCS; Perbio Science, cat. no. SH30068.03) in a 6-well plate and incubated at 37° C./5% CO2 overnight. Using the FuGENE® 6 transfection reagent (Roche, cat. no. 11988387001), cells were cotransfected with the Flp recombinase expression plasmid pOG44 and a modified plasmid additionally containing the edg-1 gene (accession no. NM_001400) termed as pcDNA5-FRT-TO_nFLAG_DEST-EDG-1 with a 9:1 ratio. To obtain the modified pcDNA5-FRT-TO_nFLAG_DEST plasmid, the Invitrogen plasmid pcDNA5/FRT/TO (Invitrogen, cat. no. V6520-20) was adapted to the Gateway® (Invitrogen) cloning system by inserting a Gateway cassette containing attR recombination sites flanking a ccdB gene and a chloramphenicol-resistance gene (Gateway conversion system, Invitrogen, cat. no. 11828-029). In addition a FLAG tag epitope was added before the 5′ att recombination site to allow recombinant expression of N-terminally FLAG-tagged proteins.
For the transfection of one well, 1.08 μg of pOG44 and 0.12 μg of pcDNA5-FRT-TO_nFLAG_DEST-EDG-1 were mixed with 100 μl of serum-free Ham F-12 medium containing 6 μl of FuGENE® 6 transfection reagent. After 20 min of incubation, the transfection reagent/DNA complex was distributed dropwise on the cells. The cells were incubated for 24 h at 37° C. Then the cells from 3 wells each were transferred to a T75 flask (Greiner Cellstar®, cat. no. 658175) containing Ham F-12 medium supplemented with 10% of FCS but without antibiotic and were incubated another 24 h. 48 h after transfection, the medium was replaced by selection medium (Ham F-12 supplemented with 10% of FCS and 300 μg/ml of hygromycin B (Invitrogen, cat. no. 10687-010)). The medium was exchanged every 2 to 3 days until a resistant population of cells had grown. […] After 2 weeks of selection, the cells were transferred into T175 flasks (Greiner Cellstar®, cat. no. 660175) and cultivated for batch production. Cells were harvested from the culture flasks by short treatment (2 to 5 min) with Accutase (PAA, cat. no. L11-007), resuspended in selection medium (see above) and centrifuged at 200×g for 5 min. Cells were resuspended in a mixture of 90% of FCS and 10% of dimethylsulfoxide and stored frozen in liquid nitrogen.
A membrane preparation was obtained by standard methods from the afore-described CHO Flp-In cell line constitutively overexpressing the human Edg-1 receptor. Briefly, the cryopreserved cells were taken in culture and grown until confluency in T175 cell culture flasks (Becton Dickinson, cat. no. 35 5001). […]

Structures are written as SMILES.

T1 sequence (P21453 whole entry): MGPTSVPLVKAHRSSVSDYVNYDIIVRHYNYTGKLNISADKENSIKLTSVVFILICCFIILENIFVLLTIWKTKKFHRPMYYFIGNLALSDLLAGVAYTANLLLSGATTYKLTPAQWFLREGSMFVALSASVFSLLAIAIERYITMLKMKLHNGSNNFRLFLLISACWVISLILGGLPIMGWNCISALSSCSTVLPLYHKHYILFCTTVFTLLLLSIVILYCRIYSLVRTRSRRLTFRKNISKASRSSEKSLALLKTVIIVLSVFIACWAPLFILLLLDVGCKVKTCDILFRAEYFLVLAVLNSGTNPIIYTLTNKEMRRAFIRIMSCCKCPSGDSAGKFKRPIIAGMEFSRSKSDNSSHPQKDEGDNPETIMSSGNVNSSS

`CCCOc1nc(NC2CCCCC2)nc2oc(-c3cc(F)ccc3Cl)nc12` [Example 149, [2-(2-chloro-5-fluoro-phenyl)-7-propoxy-oxazolo[5,4-d]pyrimidin-5-yl]-cyclohexyl-amine]: the activation at 10 µM was 70%. The figure for `CCCOc1nc(Oc2cccnc2)nc2oc(-c3cccc(C)c3)nc12` [Example 77, 7-propoxy-5-(pyridin-3-yloxy)-2-(3-methyl-phenyl)-oxazolo[5,4-d]pyrimidine] is 111%; for `CCCOc1nc(Oc2cccc3c2OC(C)(C)C3)nc2oc(-c3cccc(C)c3)nc12` [Example 83, 5-(2,2-dimethyl-2,3-dihydro-benzofuran-7-yloxy)-7-propoxy-2-(3-methyl-phenyl)-oxazolo[5,4-d]pyrimidine] it is 63%; for `CCCOc1nc(Oc2ccc(C)c(Cl)c2)nc2oc(-c3cccc(C)c3)nc12` [Example 89, 5-(3-chloro-4-methyl-phenoxy)-7-propoxy-2-(3-methyl-phenyl)-oxazolo[5,4-d]pyrimidine] it is 96%. Under `CC1(C)OCC(COc2nc(OCC3CC3)c3nc(-c4cc(F)ccc4Cl)oc3n2)O1` (centres unmarked) [Example 34, 2-(2-chloro-5-fluoro-phenyl)-7-cyclopropylmethoxy-5-(2,2-dimethyl-[1,3]dioxolan-4-ylmethoxy)-oxazolo[5,4-d]pyrimidine] stands 99%. The figure for `CCCOc1nc(Oc2cc(C)ccc2C)nc2oc(-c3cccc(C)c3)nc12` [Example 133, 5-(2,5-dimethyl-phenoxy)-7-propoxy-2-(3-methyl-phenyl)-oxazolo[5,4-d]pyrimidine] is 92%; for `CCOc1nc(Sc2ccc(F)c(F)c2)nc2oc(-c3cccc(C)c3)nc12` [Example 12, 5-(3,4-difluoro-phenylsulfanyl)-7-ethoxy-2-(3-methyl-phenyl)-oxazolo[5,4-d]pyrimidine] it is 84%; for `CCCOc1nc(Sc2nc(C)cs2)nc2oc(-c3cc(F)ccc3Cl)nc12` [Example 58, 2-(2-chloro-5-fluoro-phenyl)-5-(4-methyl-thiazol-2-ylsulfanyl)-7-propoxy-oxazolo[5,4-d]pyrimidine] it is 102%.

For the compound `Cc1cc(-c2nc3c(OC4COC4)nc(Oc4ccccc4F)nc3o2)cc(C)c1OC1COC1` [Example 49, 2-[3,5-dimethyl-4-(oxetan-3-yloxy)-phenyl]-5-(2-fluoro-phenoxy)-7-(oxetan-3-yloxy)-oxazolo[5,4-d]pyrimidine], the activation at 10 µM was determined as 123%. Under `Cc1cc(Oc2nc(OCC3CC3)c3nc(-c4cc(F)ccc4Cl)oc3n2)n(C)n1` [Example 11, 2-(2-chloro-5-fluoro-phenyl)-7-cyclopropylmethoxy-5-(2,5-dimethyl-2H-pyrazol-3-yloxy)-oxazolo[5,4-d]pyrimidine] stands 105%; under `Fc1cncc(Oc2nc(OCC3CC3)c3nc(-c4ccc(Cl)c(Cl)c4)oc3n2)c1` [Example 108, 7-cyclopropylmethoxy-2-(3,4-dichloro-phenyl)-5-(5-fluoro-pyridin-3-yloxy)-oxazolo[5,4-d]pyrimidine], 98%; under `CCCOc1nc(Oc2cccc(SC(F)(F)F)c2)nc2oc(-c3cccc(C)c3)nc12` [Example 116, 7-propoxy-2-(3-methyl-phenyl)-5-(3-trifluoromethylsulfanyl-phenoxy)-oxazolo[5,4-d]pyrimidine], 70%. Under `CCCOc1nc(OC2CCC(C(F)(F)F)CC2)nc2oc(-c3cc(F)ccc3Cl)nc12` (centres unmarked) [Example 154, 2-(2-chloro-5-fluoro-phenyl)-7-propoxy-5-(4-trifluoromethyl-cyclohexyloxy)-oxazolo[5,4-d]pyrimidine] stands 87%. Under `CCCOc1nc(Oc2cccc(N(C)C)c2)nc2oc(-c3cccc(C)c3)nc12` [Example 131, dimethyl-[3-(7-propoxy-2-(3-methyl-phenyl)-oxazolo[5,4-d]pyrimidin-5-yloxy)-phenyl]-amine] stands 51%.
